From ChEMBL document CHEMBL2177014 (J Med Chem, 2012)
Where a name gives a salt, the structure may show the parent alone.

Assays:
[1] = biological target: Glutamate receptor ionotropic, NMDA 2B (Rattus norvegicus, UniProt Q00960); test: Displacement of [3H]Ifenprodil from NMDAR-2B in Sprague-Dawley rat frontal cortex homogenates after 2 hrs by liquid scintillation counting; format: tissue-based
[2] = Displacement of [3H]MK-801 from NMDAR in Sprague-Dawley rat cerebral cortex homogenates after 2 hrs by liquid scintillation counting; format: tissue-based
[3] = biological target: T1, Acetylcholinesterase (Rattus norvegicus, UniProt P37136); test: biochemical
T1 sequence (P37136 whole entry): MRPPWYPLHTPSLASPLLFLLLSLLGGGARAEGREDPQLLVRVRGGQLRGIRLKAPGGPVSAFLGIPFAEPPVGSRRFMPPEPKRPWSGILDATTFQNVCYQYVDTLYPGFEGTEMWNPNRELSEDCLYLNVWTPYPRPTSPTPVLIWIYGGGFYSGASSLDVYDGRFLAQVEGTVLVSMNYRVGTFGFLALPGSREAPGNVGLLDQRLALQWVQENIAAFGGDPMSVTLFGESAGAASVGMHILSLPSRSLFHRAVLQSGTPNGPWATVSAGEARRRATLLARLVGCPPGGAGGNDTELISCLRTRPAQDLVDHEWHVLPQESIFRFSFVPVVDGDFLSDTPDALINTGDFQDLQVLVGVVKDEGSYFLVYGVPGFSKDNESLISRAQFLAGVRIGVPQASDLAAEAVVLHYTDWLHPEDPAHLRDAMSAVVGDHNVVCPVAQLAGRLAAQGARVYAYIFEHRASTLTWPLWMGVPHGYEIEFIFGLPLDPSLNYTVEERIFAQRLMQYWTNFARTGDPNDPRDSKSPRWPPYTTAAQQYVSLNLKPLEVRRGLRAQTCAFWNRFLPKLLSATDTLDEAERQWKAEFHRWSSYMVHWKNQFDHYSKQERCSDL
Description: Inhibition of AChE in Wistar rat brain homogenates using acetylthiocholine iodide and DTNB as substrate after 10 mins by Ellman method

[4] = Lipophilicity, log P of the compound; format: physicochemical; conditions: octanol/water
[5] = system: SH-SY5Y; test: Neuroprotective activity in human SH-SY5Y cells assessed as protection against NMDA-induced cell death after 6 hrs by MTS assay; format: functional, cell-based
[6] = organism: Rattus norvegicus; test: Displacement of [3H]MK-801 from NMDAR in Sprague-Dawley rat cerebral cortex homogenates at 10 uM after 2 hrs by liquid scintillation counting; format: tissue-based
[7] = biological target: T2, Acetylcholinesterase (Rattus norvegicus) (UniProt P37136); test: Inhibition of AChE in Wistar rat brain homogenates using acetylthiocholine iodide and DTNB as substrate at 10 uM after 10 mins by Ellman method; format: tissue-based
T2 sequence (whole entry): T1 sequence (P37136 whole entry)

[8] = Binding affinity to NMDAR in Sprague-Dawley rat cerebral cortex homogenates; format: tissue-based

Sequence of Glutamate receptor ionotropic, NMDA 2B (Q00960 whole entry): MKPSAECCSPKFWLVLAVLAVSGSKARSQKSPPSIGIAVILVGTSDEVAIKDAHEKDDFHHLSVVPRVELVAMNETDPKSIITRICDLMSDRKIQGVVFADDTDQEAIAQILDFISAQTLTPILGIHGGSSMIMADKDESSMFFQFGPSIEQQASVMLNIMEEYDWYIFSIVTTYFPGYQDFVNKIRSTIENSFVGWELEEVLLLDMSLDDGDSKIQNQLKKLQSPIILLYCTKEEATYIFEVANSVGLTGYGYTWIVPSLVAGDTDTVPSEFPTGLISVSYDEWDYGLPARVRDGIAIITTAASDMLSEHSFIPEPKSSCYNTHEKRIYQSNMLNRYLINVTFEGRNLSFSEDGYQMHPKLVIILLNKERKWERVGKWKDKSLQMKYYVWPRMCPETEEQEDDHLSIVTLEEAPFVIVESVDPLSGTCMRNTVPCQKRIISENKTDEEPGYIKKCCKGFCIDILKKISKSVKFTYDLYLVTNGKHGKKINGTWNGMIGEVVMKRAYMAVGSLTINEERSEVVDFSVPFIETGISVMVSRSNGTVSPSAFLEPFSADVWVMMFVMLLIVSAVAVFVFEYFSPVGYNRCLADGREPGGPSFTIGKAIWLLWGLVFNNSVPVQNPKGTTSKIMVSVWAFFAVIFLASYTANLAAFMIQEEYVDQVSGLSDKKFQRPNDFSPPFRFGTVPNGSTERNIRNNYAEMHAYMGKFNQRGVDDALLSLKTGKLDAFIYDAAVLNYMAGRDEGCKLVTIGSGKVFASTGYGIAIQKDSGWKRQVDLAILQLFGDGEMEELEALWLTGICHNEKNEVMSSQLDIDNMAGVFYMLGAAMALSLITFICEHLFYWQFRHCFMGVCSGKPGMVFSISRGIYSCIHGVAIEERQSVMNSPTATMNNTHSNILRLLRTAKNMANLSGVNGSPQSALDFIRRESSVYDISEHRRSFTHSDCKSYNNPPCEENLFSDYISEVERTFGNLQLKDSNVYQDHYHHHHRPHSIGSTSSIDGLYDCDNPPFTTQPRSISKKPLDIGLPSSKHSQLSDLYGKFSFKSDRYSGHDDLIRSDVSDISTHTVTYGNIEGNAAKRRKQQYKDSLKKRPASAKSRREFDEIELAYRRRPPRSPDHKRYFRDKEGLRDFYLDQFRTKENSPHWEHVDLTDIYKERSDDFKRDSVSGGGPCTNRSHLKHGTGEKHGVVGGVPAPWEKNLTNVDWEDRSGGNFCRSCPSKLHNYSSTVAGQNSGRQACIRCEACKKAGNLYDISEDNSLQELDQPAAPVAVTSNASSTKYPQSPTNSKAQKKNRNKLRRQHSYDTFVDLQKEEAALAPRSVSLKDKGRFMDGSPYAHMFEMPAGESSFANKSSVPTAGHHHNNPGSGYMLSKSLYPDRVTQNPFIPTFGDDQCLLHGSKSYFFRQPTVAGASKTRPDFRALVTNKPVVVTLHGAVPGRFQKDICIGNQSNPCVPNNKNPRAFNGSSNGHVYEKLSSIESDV

With COc1ccc2c3c1O[C@H]1C[C@@H](O)C=C[C@@]31CCN(CCCCC(=O)NC13CC4CC(C)(CC(C)(C4)C1)C3)C2 the Ki [1] was > 100000 nM, the Ki [2] was > 10000 nM and the IC50 [3] was 369 nM.

Molecule COc1ccc2c3c1O[C@H]1C[C@@H](O)C=C[C@@]31CCN(CCCCCCCNC13CC4CC(C)(CC(C)(C4)C1)C3)C2 has a logP [4] of 5.42, an IC50 [5] of 0.21 nM and a Ki [1] of 11000 nM. For the same molecule, the Ki [2] was 10000 nM and the IC50 [3] was 1.79 nM.

COc1ccc2c3c1O[C@H]1C[C@@H](O)C=C[C@@]31CCN(CCCCCC(=O)NC13CC4CC(C)(CC(C)(C4)C1)C3)C2 showed an IC50 [5] of 0.37 nM, an inhibition [6] of 33.9% and a Ki [1] of 9760 nM. The IC50 [3] was 11.3 nM.

With COc1ccc2c3c1O[C@H]1C[C@@H](O)C=C[C@@]31CCN(CCCCCCCCN(C)C13CC4CC(C)(CC(C)(C4)C1)C3)C2 the Ki [1] was > 100000 nM, the Ki [2] was > 10000 nM and the IC50 [3] was 0.52 nM.

For COc1ccc2c3c1O[C@H]1C[C@@H](O)C=C[C@@]31CCN(CCSCCNC13CC4CC(C)(CC(C)(C4)C1)C3)C2, the Ki [1] was > 100000 nM, the Ki [2] was > 10000 nM and the IC50 [3] was 131 nM.

For COc1ccc2c3c1O[C@H]1C[C@@H](O)C=C[C@@]31CCN(CCCCCCCCNC13CC4CC(C)(CC(C)(C4)C1)C3)C2, the logP [4] was 5.9, the Ki [1] was 2900 nM and the Ki [2] was 4990 nM. For the same molecule, the IC50 [3] was 5.36 nM.

For COc1ccc2c3c1O[C@H]1C[C@@H](O)C=C[C@@]31CCN(CCCCCCN(C)C13CC4CC(C)(CC(C)(C4)C1)C3)C2, the Ki [1] was 5250 nM, the Ki [2] was > 10000 nM and the IC50 [3] was 1.03 nM.

In the case of COc1ccc2c3c1O[C@H]1C[C@@H](O)C=C[C@@]31CCN(CCOCCNC13CC4CC(C)(CC(C)(C4)C1)C3)C2, the Ki [1] is reported as > 100000 nM, the Ki [2] is reported as > 10000 nM and the IC50 [3] is reported as 3920 nM.

In the case of COc1ccc2c3c1O[C@H]1C[C@@H](O)C=C[C@@]31CCN(CCCCCCCCCNC13CC4CC(C)(CC(C)(C4)C1)C3)C2, the logP [4] is reported as 6.38, the Ki [1] is reported as > 100000 nM and the Ki [2] is reported as 4630 nM. The IC50 [3] was 2.32 nM.

For COc1ccc2c3c1O[C@H]1C[C@@H](O)C=C[C@@]31CCN(CCCNCCCNC13CC4CC(C)(CC(C)(C4)C1)C3)C2, the Ki [1] was 3320 nM, the Ki [2] was 5410 nM and the IC50 [3] was 168 nM.

With COc1ccc2c3c1O[C@H]1C[C@@H](O)C=C[C@@]31CCN(CCOCCOCCNC13CC4CC(C)(CC(C)(C4)C1)C3)C2 the IC50 [5] was > 10000 nM, the Ki [1] was > 100000 nM and the Ki [2] was > 10000 nM. The IC50 [3] was 80.9 nM.

In the case of COc1ccc2c3c1O[C@H]1C[C@@H](O)C=C[C@@]31CCN(CCCCNC13CC4CC(C)(CC(C)(C4)C1)C3)C2, the logP [4] is reported as 3.98, the Ki [1] is reported as > 100000 nM and the Ki [2] is reported as 2320 nM. It also gave an IC50 [3] of 696 nM.

For CC(C(O)c1ccc(O)cc1)N1CCC(Cc2ccccc2)CC1 (configuration not stated) [IFENPRODIL], the Ki [2] was 3080 nM.

CC12CC3CC(C)(C1)CC(N)(C3)C2 [MEMANTINE] gave an IC50 [5] of 718 nM, an inhibition [7] of 8.5% and a Ki [2] of 1160 nM.

COc1ccc2c3c1O[C@H]1C[C@@H](O)C=C[C@@]31CCN(CCCCCCNC13CC4CC(C)(CC(C)(C4)C1)C3)C2 [MEMAGAL] gave a logP [4] of 4.94, an IC50 [5] of 0.28 nM and a Ki [1] of 4600 nM. For the same molecule, the Ki [2] was 4600 nM and the IC50 [3] was 1.16 nM.

With COc1ccc2c3c1O[C@H]1C[C@@H](O)C=C[C@@]31CCN(CCCC(=O)NC13CC4CC(C)(CC(C)(C4)C1)C3)C2 the Ki [1] was > 100000 nM, the Ki [2] was > 10000 nM and the IC50 [3] was 55.7 nM.

With COc1ccc2c3c1O[C@H]1C[C@@H](O)C=C[C@@]31CCN(C)C2 [GALANTAMINE] the IC50 [5] was 747 nM, the Ki [1] was > 100000 nM and the Ki [2] was > 10000 nM.

With COc1ccc2c3c1O[C@H]1C[C@@H](O)C=C[C@@]31CCN(CCCCCCCN(C)C13CC4CC(C)(CC(C)(C4)C1)C3)C2 the Ki [1] was > 100000 nM, the Ki [2] was > 10000 nM and the IC50 [3] was 1.33 nM.

With COc1ccc2c3c1O[C@H]1C[C@@H](O)C=C[C@@]31CCN(CCCCCNC13CC4CC(C)(CC(C)(C4)C1)C3)C2 the logP [4] was 4.46, the Ki [1] was 40900 nM and the Ki [2] was > 10000 nM. For the same molecule, the IC50 [3] was 4.31 nM.

Work on C[C@]12N[C@H](Cc3ccccc31)c1ccccc12 [DIZOCILPINE MALEATE] yielded an IC50 [5] of 7.91 nM and a Kd [8] of 4 nM.
